Where two headings read alike, the source gives them in different places.

The values that follow come from paper PMC7956344, “Structure Elucidation and Cholinesterase Inhibition Activity of Two New Minor Amaryllidaceae Alkaloids” (Molecules, 2021).

The target of data set [1] is T1, human butyrylcholinesterase (hBuChE) (Homo sapiens, UniProt P06276). Particulars: previously isolated narcikachnine-type alkaloids; cited from earlier work.
Data set [2] addresses T1, human butyrylcholinesterase (hBuChE). Briefly: hBuChE inhibition assay (modified Ellman method, BuTChI substrate). Format: biochemical. Particulars: for IC50: mean ± SEM of three independent measurements, each in triplicate; for % Inhibition hBuChE ± SEM / inhibition at 100 µM: tested at 100 µM compound concentration; for % Inhibition hBuChE ± SEM: 100 µM; for inhibition at 100 µM: read-out: % Inhibition hBuChE ± SEM. A general note: In Ellman's method for cholinesterases, released thiocholine reacts with DTNB.

Data set [3] has as its system POP. Particulars: previously isolated narcikachnine-type alkaloids; cited from earlier work.
For data set [4] the following is noted: indicated centrally active crossing of the BBB via passive diffusion; cited from earlier work.

T1 sequence (P06276 29-602): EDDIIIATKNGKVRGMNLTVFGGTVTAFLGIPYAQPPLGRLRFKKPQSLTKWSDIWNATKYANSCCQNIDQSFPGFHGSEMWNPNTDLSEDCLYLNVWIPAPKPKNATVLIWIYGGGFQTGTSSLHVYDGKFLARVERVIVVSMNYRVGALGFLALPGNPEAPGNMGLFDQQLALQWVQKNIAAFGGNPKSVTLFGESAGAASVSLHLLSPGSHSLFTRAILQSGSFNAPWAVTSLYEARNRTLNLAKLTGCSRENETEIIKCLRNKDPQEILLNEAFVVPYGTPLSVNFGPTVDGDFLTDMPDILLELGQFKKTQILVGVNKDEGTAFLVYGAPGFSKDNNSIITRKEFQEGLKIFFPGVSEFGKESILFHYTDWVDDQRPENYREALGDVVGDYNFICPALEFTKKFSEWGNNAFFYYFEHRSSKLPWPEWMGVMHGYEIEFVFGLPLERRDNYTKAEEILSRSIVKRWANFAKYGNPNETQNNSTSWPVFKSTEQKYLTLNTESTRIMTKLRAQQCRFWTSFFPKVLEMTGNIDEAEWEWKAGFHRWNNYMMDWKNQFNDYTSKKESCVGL

The IC50 is the concentration that gives 50% inhibition. As for `COc1ccc2c3c1OC1CC(O)CCC31CCN(Cc1cc3c(cc1-c1cccc4ccn(C)c14)OCO3)C2` (stereo not shown) [narcipavline], in data set [1], the IC50 is 24.4 ± 1.2 µM.

As usually defined, the inhibition is the percentage by which the read-out fell short of the control. Consider `COc1cc(-c2cccc3c2N(C)CC3)c(CN2CC[C@@]34C=C[C@H](O)C[C@@H]3Oc3c(OC)ccc(c34)C2)cc1O` [narciabduliine (2), narciabduliine], for which, in data set [2], half-maximal inhibition (IC50) was put at 3.44 ± 0.02 µM, the “% Inhibition hBuChE ± SEM” value worked out at 94.1 ± 0.2% and the inhibition at 100 µM is above 90%.

For `COc1ccc2c3c1O[C@H]1C[C@@H](O)C=C[C@@]31CCN(C)C2` [galantamine], in data set [2], the inhibition at 100 µM was determined as 68.2 ± 1.2%.

With `COc1cc(-c2cccc3c2N(C)CC3)c(CN2CC[C@@]34C=C[C@H](O)C[C@@H]3Oc3c(OC)ccc(c34)C2)c(OC)c1OC` [narcieliine], the concentration for half-maximal inhibition (IC50) in data set [3] was 163 ± 13 µM; in data set [1], 1.3 ± 0.3 µM. Moreover, the “in vitro permeability (Pe)” value in data set [4] is recorded as 14.1 ± 1.0 × 10^−6 cm·s^−1.

In the case of `COc1cc2c(cc1O)[C@@H](O)O[C@@H]1CC=C3CCN(C)[C@H]3[C@H]21` [9-O-demethyllycorenine (1), 9-O-demethyllycorenine], in data set [2], the IC50 is above 100 µM, the “% Inhibition hBuChE ± SEM” value is on record as “almost devoid of cholinesterase inhibitory activity” and the inhibition at 100 µM is 30.2 ± 0.8%.

On to `COc1ccc2c3c1OC1CC(=O)CCC31CCN(Cc1cc3c(cc1-c1cccc4c1N(C)CC4)OCO3)C2` (stereo not shown) [narcimatuline], for which the values for the IC50 in data set [3] and in data set [1] were 29.2 ± 1 µM and 5.9 ± 0.2 µM, respectively.
